Results from patent US20260265238A1, “COMPOUNDS AND PHARMACEUTICAL COMPOSITIONS THAT DEGRADE SWI/SNF-RELATED MATRIX-ASSOCIATED ACTIN-DEPENDENT REGULATOR OF CHROMATIN SUBFAMILY A” (Plexium, Inc., priority 2023, published 2026).

Legend:
[1] = target: T1, SMARCA2-HiBiT HeLa cells (protein which is expressed from the SMARCA2 gene) (Homo sapiens, UniProt P51531); experiment: SMARCA2 degradation assay (HiBiT-fusion HeLa cell line, 24 h, luminescence); assay type: cell-based
T1 construct: protein which is expressed from the SMARCA2 and SMARCA4 genes; host or cells: HeLa (SMARCA2-HiBiT engineered line)
Procedure, shortened: (§1)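 SMARCA2- or SMARCA4-HiBiT HeLa cells seeded overnight at 37° C, then given compound as a 10-point dilution (typically 10 μM to 300 pM) for 24 h at 37° C. Protein level read by HiBiT lytic detection luminescence; DC50 from dose-response curves; degradation also scored at 1 μM.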

[2] = target: T2, SMARCA4-HiBiT HeLa cells (protein which is expressed from the SMARCA4 gene) (Homo sapiens, UniProt P51532); experiment: SMARCA4 degradation assay (HiBiT-fusion HeLa cell line, 24 h, luminescence); assay type: cell-based
T2 construct: protein which is expressed from the SMARCA2 and SMARCA4 genes; host or cells: HeLa (SMARCA4-HiBiT engineered line)
Procedure, shortened: as §1

T1 sequence (P51531 whole entry, the tested form may be a part): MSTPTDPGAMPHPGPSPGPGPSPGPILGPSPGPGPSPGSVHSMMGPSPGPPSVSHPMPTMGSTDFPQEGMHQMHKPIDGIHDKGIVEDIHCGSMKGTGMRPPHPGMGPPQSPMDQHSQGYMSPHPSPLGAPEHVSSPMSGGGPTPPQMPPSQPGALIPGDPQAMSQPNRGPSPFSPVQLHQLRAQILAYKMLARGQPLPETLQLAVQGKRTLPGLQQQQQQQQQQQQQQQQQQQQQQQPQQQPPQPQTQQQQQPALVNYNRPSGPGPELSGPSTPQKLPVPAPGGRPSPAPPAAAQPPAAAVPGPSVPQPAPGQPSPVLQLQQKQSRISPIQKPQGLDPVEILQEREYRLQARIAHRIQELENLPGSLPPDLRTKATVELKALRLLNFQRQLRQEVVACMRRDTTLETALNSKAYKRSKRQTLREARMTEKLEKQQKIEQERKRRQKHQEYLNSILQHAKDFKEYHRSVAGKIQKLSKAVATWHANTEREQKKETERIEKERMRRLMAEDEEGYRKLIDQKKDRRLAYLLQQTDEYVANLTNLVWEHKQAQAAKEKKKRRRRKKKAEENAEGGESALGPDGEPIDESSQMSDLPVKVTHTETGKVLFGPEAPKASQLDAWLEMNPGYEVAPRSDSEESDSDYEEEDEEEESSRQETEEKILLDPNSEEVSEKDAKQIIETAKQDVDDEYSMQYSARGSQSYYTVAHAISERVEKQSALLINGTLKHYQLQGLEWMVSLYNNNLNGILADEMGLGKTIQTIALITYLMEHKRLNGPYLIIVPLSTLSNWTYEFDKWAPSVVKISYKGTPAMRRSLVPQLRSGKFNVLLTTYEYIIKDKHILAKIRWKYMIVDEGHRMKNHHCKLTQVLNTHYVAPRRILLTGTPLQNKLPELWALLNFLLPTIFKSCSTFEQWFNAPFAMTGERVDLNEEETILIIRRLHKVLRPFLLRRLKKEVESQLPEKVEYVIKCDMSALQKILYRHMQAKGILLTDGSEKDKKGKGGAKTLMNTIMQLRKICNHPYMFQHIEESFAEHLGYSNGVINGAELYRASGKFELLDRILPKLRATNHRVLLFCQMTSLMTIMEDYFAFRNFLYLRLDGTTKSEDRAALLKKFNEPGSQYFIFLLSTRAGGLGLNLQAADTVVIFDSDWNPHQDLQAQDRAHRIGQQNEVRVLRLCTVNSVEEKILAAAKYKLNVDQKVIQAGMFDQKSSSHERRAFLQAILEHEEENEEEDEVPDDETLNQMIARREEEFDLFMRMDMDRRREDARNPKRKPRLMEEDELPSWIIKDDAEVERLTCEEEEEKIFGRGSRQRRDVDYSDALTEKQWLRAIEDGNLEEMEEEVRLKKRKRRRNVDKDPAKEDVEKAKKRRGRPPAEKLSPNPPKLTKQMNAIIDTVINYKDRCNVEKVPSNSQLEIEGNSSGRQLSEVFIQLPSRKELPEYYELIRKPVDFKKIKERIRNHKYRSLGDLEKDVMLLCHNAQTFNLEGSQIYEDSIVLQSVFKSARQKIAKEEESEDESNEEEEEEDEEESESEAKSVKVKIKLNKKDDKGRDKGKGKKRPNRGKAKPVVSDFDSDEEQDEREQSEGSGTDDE
T2 sequence (P51532 whole entry, the tested form may be a part): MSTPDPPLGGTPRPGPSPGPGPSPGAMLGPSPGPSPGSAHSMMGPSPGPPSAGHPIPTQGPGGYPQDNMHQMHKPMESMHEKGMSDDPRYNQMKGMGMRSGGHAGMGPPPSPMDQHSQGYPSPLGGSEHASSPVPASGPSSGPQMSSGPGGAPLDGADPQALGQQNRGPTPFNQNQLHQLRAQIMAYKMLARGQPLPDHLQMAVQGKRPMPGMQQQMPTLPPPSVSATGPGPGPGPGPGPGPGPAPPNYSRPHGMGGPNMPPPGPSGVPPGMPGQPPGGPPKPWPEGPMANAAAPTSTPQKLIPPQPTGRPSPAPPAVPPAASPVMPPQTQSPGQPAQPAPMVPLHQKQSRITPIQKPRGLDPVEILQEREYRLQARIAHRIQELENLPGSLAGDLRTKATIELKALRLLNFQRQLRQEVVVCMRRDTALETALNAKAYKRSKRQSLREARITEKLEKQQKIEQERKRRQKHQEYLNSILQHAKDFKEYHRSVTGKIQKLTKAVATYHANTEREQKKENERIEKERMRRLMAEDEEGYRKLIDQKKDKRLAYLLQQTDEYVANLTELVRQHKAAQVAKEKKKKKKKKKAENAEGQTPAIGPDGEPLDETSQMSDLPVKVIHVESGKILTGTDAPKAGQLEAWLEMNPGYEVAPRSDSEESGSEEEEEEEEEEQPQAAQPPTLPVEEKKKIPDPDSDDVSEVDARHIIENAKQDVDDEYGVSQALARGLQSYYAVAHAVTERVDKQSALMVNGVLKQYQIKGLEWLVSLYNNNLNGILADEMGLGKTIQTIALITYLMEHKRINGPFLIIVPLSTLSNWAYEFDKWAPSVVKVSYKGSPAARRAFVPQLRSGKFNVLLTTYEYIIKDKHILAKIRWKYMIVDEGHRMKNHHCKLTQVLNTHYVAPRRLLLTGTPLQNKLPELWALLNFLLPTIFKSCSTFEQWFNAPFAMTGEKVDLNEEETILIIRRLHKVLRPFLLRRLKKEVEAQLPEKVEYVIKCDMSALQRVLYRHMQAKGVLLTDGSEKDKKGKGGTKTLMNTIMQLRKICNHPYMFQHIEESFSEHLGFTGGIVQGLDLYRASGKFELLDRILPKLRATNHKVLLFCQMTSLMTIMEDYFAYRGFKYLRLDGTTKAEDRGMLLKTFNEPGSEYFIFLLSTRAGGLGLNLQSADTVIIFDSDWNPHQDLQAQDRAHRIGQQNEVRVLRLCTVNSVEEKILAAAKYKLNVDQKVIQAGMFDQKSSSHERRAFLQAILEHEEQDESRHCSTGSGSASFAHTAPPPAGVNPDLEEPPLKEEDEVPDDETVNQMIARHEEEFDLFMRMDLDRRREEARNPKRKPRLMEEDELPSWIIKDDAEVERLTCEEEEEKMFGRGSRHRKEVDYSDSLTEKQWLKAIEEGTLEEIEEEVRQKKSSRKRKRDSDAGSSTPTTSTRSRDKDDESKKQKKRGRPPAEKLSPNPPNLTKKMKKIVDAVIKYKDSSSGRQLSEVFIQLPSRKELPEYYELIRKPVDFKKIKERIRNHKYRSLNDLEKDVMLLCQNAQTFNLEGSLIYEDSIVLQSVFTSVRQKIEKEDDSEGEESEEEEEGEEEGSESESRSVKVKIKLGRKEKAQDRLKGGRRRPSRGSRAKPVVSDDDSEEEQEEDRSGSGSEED

DC50 [1] [µM]	SMARCA2 % Degradation @ 1 μM ([1]; @ 1 μM)	DC50 [2] [µM]	inhibition at 1 µM ([2]; @ 1 μM) [%]	SMARCA2 % Degradation @ 1 μM ([1]; 1 μM)	Compound	inhibition at 1 µM ([2]; 1 μM) [%]
0.05 to 0.5	+++ (+++=>70%)	0.05 to 0.5	> 70	–	Nc1nnc(-c2ccccc2O)cc1N1CCCN(c2ccnc(C#CCNC(=O)OCC(F)(F)F)n2)CC1 [Compound P-339, 6-(o-hydroxyphenyl)-4-(4-{2-[3-(2,2,2-trifluoroethoxycarbonylamino)-1-propynyl]-4-pyrimidinyl}-1,4-diazepan-1-yl)-3-pyridazinamine]	–
0.05 to 0.5	++ (++=30-70%)	0.05 to 0.5	30 to 70	–	Nc1nnc(-c2ccccc2O)cc1N1CCC2(CCCN(c3ccnc(C#CCNC(=O)c4cc5n(n4)CCC5)n3)C2)CC1 [Compound P-129, N-(3-(4-(9-(3-amino-6-(2-hydroxyphenyl)pyridazin-4-yl)-2,9-diazaspiro[5.5]undecan-2-yl)pyrimidin-2-yl)prop-2-yn-1-yl)-5,6-dihydro-4H-pyrrolo[1,2-b]pyrazole-2-carboxamide]	–
0.05 to 0.5	++ (++=30-70%)	0.05 to 0.5	30 to 70	–	Nc1nnc(-c2ccccc2O)cc1N1CCC2(CCN(c3ccnc(C#CCn4ccnc4)n3)CC2)C1 [Compound P-253, o-[6-amino-5-(8-{2-[3-(1-imidazolyl)-1-propynyl]-4-pyrimidinyl}-2,8-diaza-2-spiro [4.5]decyl)-3-pyridazinyl]phenol]	–
0.05 to 0.5	++ (++=30-70%)	0.5 to 5	30 to 70	–	CN1CCC(C#Cc2nccc(N3CCCN(c4cc(-c5ccccc5O)nnc4N)CC3)n2)CC1 [Compound P-256, o-[6-amino-5-(4-{2-[2-(1-methyl-4-piperidyl)ethynyl]-4-pyrimidinyl}-1,4-diazepan-1-yl)-3-pyridazinyl]phenol]	–
0.05 to 0.5	–	0.05 to 0.5	–	+++ (+++=>70%)	C[C@@H]1CCN(c2cc(-c3ccccc3O)nnc2N)CCN1c1ccnc(C#CCn2ccnc2)c1 [Compound P-428, 0-{5-[(R)-4-{2-[3-(1-imidazolyl)-1-propynyl]-4-pyridyl}-5-methyl-1,4-diazepan-1-yl]-6-amino-3-pyridazinyl}phenol]	> 70
0.05 to 0.5	++ (++=30-70%)	> 5	< 30	–	C[C@@H]1CCN(c2cc(-c3ccccc3O)nnc2N)CCN1c1ccnc(C#CCN2CC3(COC3)C2)n1 [Compound P-213, o-{5-[(R)-5-methyl-4-(2-{3-(2-oxa-6-aza-6-spiro[3.3]heptyl)-1-propynyl}-4-pyrimidinyl)-1,4-diazepan-1-yl]-6-amino-3-pyridazinyl}phenol]	–
< 0.05	+++ (+++=>70%)	< 0.05	30 to 70	–	CCN(CC)CC#Cc1nccc(N2CCN(c3cc(-c4ccccc4O)nnc3N)CC[C@H]2C)n1 [Compound P-202]	–
0.05 to 0.5	++ (++=30-70%)	0.05 to 0.5	30 to 70	–	Cc1oncc1C(=O)NCC#Cc1nccc(N2CCN(c3cc(-c4ccccc4O)nnc3N)CC2)n1 [Compound P-3, N-[3-(4-{4-[3-amino-6-(2-hydroxyphenyl)pyridazin-4-yl]piperazin-1-yl}pyrimidin-2-yl)prop-2-yn-1-yl]-5-methyl-1,2-oxazole-4-carboxamide]	–
< 0.05	++ (++=30-70%)	< 0.05	30 to 70	–	C[C@@H]1CCN(c2cc(-c3ccccc3O)nnc2N)CCN1c1ccnc(C#CCN2CCC[C@@H]2C)n1 [Compound P-233, o-{5-[(R)-4-(2-{3-[(S)-2-methyl-1-pyrrolidinyl]-1-propynyl}-4-pyrimidinyl)-5-methyl-1,4-diazepan-1-yl]-6-amino-3-pyridazinyl} phenol]	–
0.05 to 0.5	+++ (+++=>70%)	0.05 to 0.5	> 70	–	CC(C)(C)OC(=O)NCC#Cc1nccc(N2CCCN(c3cc(-c4ccccc4O)nnc3N)CC2)n1 [Compound P-121, tert-butyl (3-(4-(4-(3-amino-6-(2-hydroxyphenyl)pyridazin-4-yl)-1,4-diazepan-1-yl)pyrimidin-2-yl)prop-2-yn-1-yl)carbamate]	–
0.05 to 0.5	++ (++=30-70%)	0.05 to 0.5	< 30	–	C[C@@H]1CCN(c2cc(-c3ccccc3O)nnc2N)CCN1c1ccnc(C#CCNc2ccn(C)n2)n1 [Compound P-331, 0-{5-[(R)-5-methyl-4-{2-[3-(1-methyl-3-pyrazolylamino)-1-propynyl]-4-pyrimidinyl}-1,4-diazepan-1-yl]-6-amino-3-pyridazinyl}phenol]	–
0.05 to 0.5	++ (++=30-70%)	0.05 to 0.5	30 to 70	–	Nc1nnc(-c2ccccc2O)cc1N1CCCN(c2ccnc(C#CC3CCOC3)n2)CC1 (stereo not shown) [Compound P-340, 0-[6-amino-5-(4-{2-[2-(tetrahydro-3-furyl)ethynyl]-4-pyrimidinyl}-1,4-diazepan-1-yl)-3-pyridazinyl]phenol]	–
0.05 to 0.5	++ (++=30-70%)	0.05 to 0.5	< 30	–	C[C@@H]1CCN(c2cc(-c3ccccc3O)nnc2N)CCN1c1ccnc(C=CCN(C)CC(F)F)n1 [Compound P-163, o-{5-[(R)-4-(2-{3-[(2,2-difluoroethyl)-N-methylamino]-1-propenyl}-4-pyrimidinyl)-5-methyl-1,4-diazepan-1-yl]-6-amino-3-pyridazinyl}phenol]	–
0.05 to 0.5	++ (++=30-70%)	0.5 to 5	30 to 70	–	CN1C(=O)NC2(CCN(CC#Cc3nccc(N4CCCN(c5cc(-c6ccccc6O)nnc5N)CC4)n3)CC2)C1=O [Compound P-362, 8-[3-(4-{4-[3-amino-6-(o-hydroxyphenyl)-4-pyridazinyl]-1,4-diazepan-1-yl}-2-pyrimidinyl)-2-propynyl]-3-methyl-1,3,8-triaza-2,4-spiro [4.5]decanedione]	–
0.05 to 0.5	+++ (+++=>70%)	0.05 to 0.5	30 to 70	–	Nc1nnc(-c2ccccc2O)cc1N1CCCN(c2ccnc(C#CCn3ncc4ccncc43)n2)CC1 [Compound P-116, 2-(5-(4-(2-(3-(1H-pyrazolo[3,4-c]pyridin-1-yl)prop-1-yn-1-yl)pyrimidin-4-yl)-1,4-diazepan-1-yl)-6-aminopyridazin-3-yl)phenol]	–
0.05 to 0.5	–	> 5	–	++ (++=30-70%)	C[C@@H]1CCN(c2cc(-c3ccccc3O)nnc2N)CCN1c1ccc(C#N)c(C#CCN2CC(F)(F)[C@H]2C)n1 [Compound P-413, 6-{(R)-4-[3-amino-6-(o-hydroxyphenyl)-4-pyridazinyl]-7-methyl-1,4-diazepan-1-y1}-2-{3-[(R)-3,3-difluoro-2-methyl-1-azetidinyl]-1-propynyl} nicotinonitrile]	–
0.05 to 0.5	–	< 0.05	–	+ (+=<30%)	C[C@@H]1CCN(c2cc(-c3ccccc3O)nnc2N)CCN1c1ccnc(C#CCN2[C@H](C)COC[C@@H]2C)c1 [Compound P-422, 0-{5-[(R)-4-(2-{3-[(3R,5S)-3,5-dimethyl-4-morpholiny1]-1-propynyl}-4-pyridyl)-5-methyl-1,4-diazepan-1-yl]-6-amino-3-pyridazinyl}phenol]	–
0.05 to 0.5	++ (++=30-70%)	0.5 to 5	30 to 70	–	Nc1nnc(-c2ccccc2O)cc1N1CCCN(c2ccnc(C#CCN3CC4CCC(C3)O4)n2)CC1 [Compound P-315, 0-{6-amino-5-[4-(2-{3-(8-oxa-3-azabicyclo[3.2.1]oct-3-yl)-1-propynyl}-4-pyrimidinyl)-1,4-diazepan-1-yl]-3-pyridazinyl} phenol]	–

Compound	DC50 [1] [µM]	SMARCA2 % Degradation @ 1 μM ([1]; @ 1 μM)	DC50 [2] [µM]	inhibition at 1 µM ([2]; @ 1 μM) [%]	SMARCA2 % Degradation @ 1 μM ([1]; 1 μM)	inhibition at 1 µM ([2]; 1 μM) [%]
Cn1ccc(NCC#Cc2nccc(N3C4CCC3CN(c3cc(-c5ccccc5O)nnc3N)C4)n2)n1 [Compound P-287]	0.05 to 0.5	++ (++=30-70%)	0.05 to 0.5	30 to 70	–	–
CC(C)(C)OC(=O)NCC#Cc1nccc(N2CCC(Oc3cc(-c4ccccc4O)nnc3N)CC2)n1 [Compound P-296, 4-(1-{2-[3-(tert-butoxycarbonylamino)-1-propynyl]-4-pyrimidinyl}-4-piperidyloxy)-6-(o-hydroxyphenyl)-3-pyridazinamine]	0.05 to 0.5	++ (++=30-70%)	0.05 to 0.5	30 to 70	–	–
CN(C)CC#Cc1nccc(N2C3CCC2CN(c2cnnc(-c4ccccc4O)c2)C3)n1 [Compound P-381, 0-[5-(8-{2-[3-(dimethylamino)-1-propynyl]-4-pyrimidinyl}-3,8-diazabicyclo[3.2.1]oct-3-yl)-3-pyridazinyl]phenol]	0.05 to 0.5	–	> 5	–	++ (++=30-70%)	–
N#Cc1ccc(N2C3CCC2CN(c2cnnc(-c4ccccc4O)c2)C3)nc1C#CCN1CC[C@H](F)C1 [Compound P-402, 2-{3-[(S)-3-fluoro-1-pyrrolidinyl]-1-propynyl}-6-{3-[6-(o-hydroxyphenyl)-4-pyridazinyl]-3,8-diazabicyclo[3.2.1]oct-8-yl}nicotinonitrile]	0.05 to 0.5	–	0.05 to 0.5	–	++ (++=30-70%)	< 30
